Results on three compounds are retold here after patent publication US20160038435A1 (Teva Pharmaceutical Industries Ltd., priority 2013, published 2016).

Converted amounts (≈) assume the structure as drawn. Counter-ions that a name gives are not always drawn.

A short description of data set [1]: Concentration of saturated donor solutions applied onto the skin. Format: physicochemical.
A short description of data set [2]: Saturation solubilities in solvents. In kind it is physicochemical. Here is the method: Saturation solubilities were measured in solvents typically used for incorporating of the drug into the pressure sensitive adhesives (PSA). Additional solubilities were measured in water, Phosphate buffered saline (PBS) Buffer (acceptor medium for skin permeation) and three different donor medium. All solubilities were measured at room temperature.

Data set [3] relates to genes related to antigen presentation. The note with it: mainly via the NFkB pathway; cited from earlier work.

As a reminder, the Solubility is how much of the substance goes into solution per volume.

Consider `CCN(C(=O)c1c(O)c2c(Cl)cccc2n(C)c1=O)c1ccccc1` [Laquinimod Sodium Salt, Laquinimod sodium], for which the “c of saturated solution” value was 1.17 mg/mL in data set [1] (EtOH/Dodecanol 95/5, saturated solution containing solid API, listed as Laquinimod-Na); 4.30 mg/mL in data set [1] (EtOH/Oleic acid 85/15, saturated solution containing solid API, listed as Laquinimod-Na); 10.00 mg/mL in data set [1] (Propylene glycol (PG)/water 8/2, saturated solution containing solid API, listed as Laquinimod-Na).

In the case of `CCN(C(=O)c1c(O)c2c(Cl)cccc2n(C)c1=O)c1ccccc1` [Laquinimod free acid], the Solubility came out at 1662 µg/mL (≈ 4.66 mM) in data set [2] (2-Propanol, room temperature); 4884 µg/mL (≈ 13.7 mM) in data set [2] (Acetone, room temperature); 4098 µg/mL (≈ 11.5 mM) in data set [2] (Ethanol, room temperature); 4209 µg/mL (≈ 11.8 mM) in data set [2] (Ethanol/Dodecanol (95:5), room temperature); 4785 µg/mL (≈ 13.4 mM) in data set [2] (Ethanol/Oleic acid (85:15), room temperature); 3909 µg/mL (≈ 11 mM) in data set [2] (Ethylacetate, room temperature). Further, the Solubility in data set [2] (PBS pH 7.4, room temperature) stood at 1296 µg/mL (≈ 3.63 mM); in data set [2] (Propylenglycol/water (80:20), room temperature), 1281 µg/mL (≈ 3.59 mM); in data set [2] (Water, room temperature) it was 24 µg/mL (≈ 0.0673 mM); in data set [2] (n-Heptane, room temperature), 0.6 µg/mL (≈ 0.00168 mM). Also, the “c of saturated solution” value came to 3.49 mg/mL in data set [1] (EtOH/Dodecanol 95/5, saturated solution containing solid API); 3.93 mg/mL in data set [1] (EtOH/Oleic acid 85/15, saturated solution containing solid API); 1.22 mg/mL in data set [1] (Propylene glycol (PG)/water 8/2, saturated solution containing solid API).

On to `CCN(C(=O)c1c(O)c2c(Cl)cccc2n(C)c1=O)c1ccccc1` [laquinimod], for which the “effect on genes related to antigen presentation and inflammatory pathways” value in data set [3] was “induced suppression of genes related to antigen presentation and corresponding inflammatory pathways”.
